Data on 49 compounds can be found in the Biogen ADME set (Fang et al. 2023).

Values after ≈ are worked out from the molar mass of the structure shown.

For the data set the following is noted: for aqueous solubility: pH 6.8.

What is called aqueous solubility is the dissolved amount per volume that the medium holds.

As for `COc1ccc(CN2CCN(C(=O)C3CCN(C(=O)C4CC4)CC3)CC2)cc1`, the MDR1-MDCK efflux ratio turned out to be 7.58; the intrinsic clearance, human liver microsomes is no more than 4.74 mL/min/kg; the intrinsic clearance, rat liver microsomes came to 50.4 mL/min/kg.

Turning to `COc1ccccc1/C=C/CN1CCCC2(C1)OCCO2`, the MDR1-MDCK efflux ratio was determined as 0.549; the intrinsic clearance, human liver microsomes stood at 17.7 mL/min/kg; the intrinsic clearance, rat liver microsomes turned out to be 2180 mL/min/kg.

Take `Cc1ccc(CN)c(-n2cc(Cl)cn2)n1`: the MDR1-MDCK efflux ratio stood at 0.396; the intrinsic clearance, human liver microsomes was no more than 4.74 mL/min/kg; the intrinsic clearance, rat liver microsomes worked out at 27.4 mL/min/kg.

For `Nc1ncccc1OCc1cccc(Cl)c1`, the intrinsic clearance, human liver microsomes amounted to 157 mL/min/kg and the intrinsic clearance, rat liver microsomes stood at 721 mL/min/kg.

For the compound `O=C(NCc1ccc(O)c(O)c1)c1ccc2ccccc2n1`, the intrinsic clearance, human liver microsomes was no more than 4.74 mL/min/kg; the intrinsic clearance, rat liver microsomes stood at 315 mL/min/kg; the aqueous solubility was found to be 55.4 µg/mL (≈ 188 µM).

As for `Nc1c(-c2ccc(F)cc2)ncn1Cc1ccccc1`, the intrinsic clearance, human liver microsomes was 14.6 mL/min/kg and the intrinsic clearance, rat liver microsomes was 372 mL/min/kg.

Regarding `CN(CC(=O)NC1(C#N)CCCCC1)c1cccc(C#N)c1`, the MDR1-MDCK efflux ratio is 10.4; the intrinsic clearance, human liver microsomes is 85.8 mL/min/kg; the intrinsic clearance, rat liver microsomes turned out to be 701 mL/min/kg; the aqueous solubility is 20.3 µg/mL (≈ 68.4 µM).

For `COc1ccc(-c2cn3c4ccccc4nc3n2CCO)cc1`, the MDR1-MDCK efflux ratio is 0.389; the intrinsic clearance, human liver microsomes stood at 42.2 mL/min/kg; the intrinsic clearance, rat liver microsomes stood at 1190 mL/min/kg; the aqueous solubility came to 47 µg/mL (≈ 153 µM).

Take `COCc1noc(CNC(=O)N(C)[C@@H](C)c2ccccc2)n1`: the MDR1-MDCK efflux ratio was 2.71; the intrinsic clearance, human liver microsomes was no more than 4.74 mL/min/kg; the intrinsic clearance, rat liver microsomes amounted to 63.5 mL/min/kg.

For `Cc1ccccc1OCCCNc1cc(Cn2c(C)nc3ccccc32)nc(N)n1`, the MDR1-MDCK efflux ratio worked out at 21.4; the intrinsic clearance, human liver microsomes was 717 mL/min/kg; the intrinsic clearance, rat liver microsomes is 2130 mL/min/kg; the aqueous solubility was 14.4 µg/mL (≈ 35.9 µM).

`Cc1ccc(NC(=O)OCC(F)(F)F)cn1`: the MDR1-MDCK efflux ratio came to 0.584; the intrinsic clearance, human liver microsomes is no more than 4.74 mL/min/kg; the intrinsic clearance, rat liver microsomes was found to be 35.2 mL/min/kg.

As for `CC(C)N1CCN(CCCSc2ccccn2)CC1`, the MDR1-MDCK efflux ratio worked out at 0.74; the intrinsic clearance, human liver microsomes came out at 128 mL/min/kg; the intrinsic clearance, rat liver microsomes is 1080 mL/min/kg.

Take `CCOc1ccc(S(=O)(=O)N(CC)CC(=O)Nc2ccc3c(c2)OCO3)cc1`: the MDR1-MDCK efflux ratio stood at 0.853 and the aqueous solubility amounted to 0.44 µg/mL (≈ 1.08 µM).

For `COc1ccncc1NCc1cscn1`, the intrinsic clearance, human liver microsomes is no more than 4.74 mL/min/kg and the intrinsic clearance, rat liver microsomes is 25.4 mL/min/kg.

Take `COc1cccc(O[C@H]2CCN(C(=O)c3cc(-c4ccc(F)cc4)on3)CC[C@@H]2O)c1`: the MDR1-MDCK efflux ratio is 0.882; the intrinsic clearance, human liver microsomes was determined as 66.3 mL/min/kg; the intrinsic clearance, rat liver microsomes stood at 577 mL/min/kg.

Regarding `COc1cccc2cc(C(N)=S)/c(=N/Nc3ccccc3)oc12`, the MDR1-MDCK efflux ratio is 0.496 and the aqueous solubility is 0.45 µg/mL (≈ 1.38 µM).

For the compound `COc1ccc(-c2nnc(NC(=O)c3ccc4ccccc4c3)o2)cc1OC`, the aqueous solubility amounted to 0.27 µg/mL (≈ 0.719 µM).

For the compound `CCCCC1=NC2(CCCC2)C(=O)N1Cc1ccc(-c2ccccc2-c2nn[nH]n2)cc1`, the MDR1-MDCK efflux ratio stood at 148; the intrinsic clearance, human liver microsomes came out at 10.7 mL/min/kg; the intrinsic clearance, rat liver microsomes is 151 mL/min/kg; the aqueous solubility came to 37 µg/mL (≈ 86.3 µM).

On to `CCCNC(=O)CSc1nc2cc(C)ccc2[nH]1`, for which the MDR1-MDCK efflux ratio was 2.1; the intrinsic clearance, human liver microsomes was 107 mL/min/kg; the intrinsic clearance, rat liver microsomes was 1190 mL/min/kg.

`Nc1nccc2c1ncn2[C@H]1C=C(CO)[C@@H](O)[C@H]1O`: the intrinsic clearance, human liver microsomes is no more than 4.74 mL/min/kg and the intrinsic clearance, rat liver microsomes came out at 16.3 mL/min/kg.

Turning to `COCCS(=O)(=O)N1CCC2(Cc3ccccc3C2)C1`, the MDR1-MDCK efflux ratio was 0.583; the intrinsic clearance, human liver microsomes worked out at 19.2 mL/min/kg; the intrinsic clearance, rat liver microsomes came out at 893 mL/min/kg; the aqueous solubility amounted to 54 µg/mL (≈ 183 µM).

Take `O=C(Cn1ncc2ccccc21)Nc1ccc2c(c1)CCO2`: the intrinsic clearance, human liver microsomes amounted to 13.7 mL/min/kg and the intrinsic clearance, rat liver microsomes was 210 mL/min/kg.

Turning to `COc1cccc(CN2CCc3nc(-c4cnc(C)cn4)nc(O)c3C2)c1`, the intrinsic clearance, human liver microsomes is no more than 4.74 mL/min/kg and the intrinsic clearance, rat liver microsomes was 38.2 mL/min/kg.

Regarding `O=C(NCCCn1ccnc1)N1CCC12CCC2`, the MDR1-MDCK efflux ratio was 30.5; the intrinsic clearance, human liver microsomes is no more than 4.74 mL/min/kg; the intrinsic clearance, rat liver microsomes worked out at 27.8 mL/min/kg; the aqueous solubility was 41.1 µg/mL (≈ 166 µM).

Consider `Cc1nn(C)c(C)c1NC(=O)CN1CCC2(CCCCC2)CC1`, for which the MDR1-MDCK efflux ratio came to 1.6; the intrinsic clearance, human liver microsomes turned out to be 12.4 mL/min/kg; the intrinsic clearance, rat liver microsomes came out at 497 mL/min/kg; the aqueous solubility was 87.3 µg/mL (≈ 274 µM).

Take `CNC(=O)c1ccc2c(c1)NC(=O)/C2=C(\Nc1cccc(CN(C)C)c1)c1ccccc1`: the aqueous solubility stood at 8.39 µg/mL (≈ 19.7 µM).

On to `Cc1cc(C)nc(NS(=O)(=O)c2ccc(NC(=O)/C=C/c3ccc([N+](=O)[O-])s3)cc2)n1`, for which the intrinsic clearance, human liver microsomes amounted to 14 mL/min/kg and the intrinsic clearance, rat liver microsomes was 57.3 mL/min/kg.

Turning to `CCN(CC)C(=O)CSCc1cncc(F)c1`, the MDR1-MDCK efflux ratio was determined as 0.711; the intrinsic clearance, human liver microsomes is 31.2 mL/min/kg; the intrinsic clearance, rat liver microsomes is 835 mL/min/kg.

In the case of `CC(=O)Nc1nc(-c2c(C)cc(C)cc2C)cs1`, the MDR1-MDCK efflux ratio was found to be 0.559; the intrinsic clearance, human liver microsomes turned out to be 24.9 mL/min/kg; the intrinsic clearance, rat liver microsomes was 2360 mL/min/kg; the aqueous solubility was determined as 19.2 µg/mL (≈ 73.7 µM).

Take `Cc1cccc([C@H]2CN(C(=O)C3CCCC3)[C@@H]3CCN(CC4CC4)C[C@H]23)c1`: the MDR1-MDCK efflux ratio came out at 1.86; the intrinsic clearance, human liver microsomes came to 555 mL/min/kg; the intrinsic clearance, rat liver microsomes was determined as 2330 mL/min/kg.

`CCC(=O)Nc1sc2c(c1C#N)CCC2` yielded an intrinsic clearance, human liver microsomes of 156 mL/min/kg and an intrinsic clearance, rat liver microsomes of 381 mL/min/kg.

For `Cc1ccc(NC(=O)c2cccc(N(C)C)c2)cc1NC(=O)c1ccc(O)cc1`, the MDR1-MDCK efflux ratio was determined as 16.6; the intrinsic clearance, human liver microsomes was 45.4 mL/min/kg; the intrinsic clearance, rat liver microsomes amounted to 307 mL/min/kg; the aqueous solubility came out at 3.3 µg/mL (≈ 8.47 µM).

For `C#CCNC(=O)c1cc(C(C)C)nn1CC`, the MDR1-MDCK efflux ratio came to 0.855; the intrinsic clearance, human liver microsomes was no more than 4.74 mL/min/kg; the intrinsic clearance, rat liver microsomes is 12.4 mL/min/kg; the aqueous solubility stood at 28.4 µg/mL (≈ 130 µM).

`NCc1ccc(-n2cnc3ccccc32)cc1Cl` had an intrinsic clearance, human liver microsomes of 13 mL/min/kg and an intrinsic clearance, rat liver microsomes of 36.1 mL/min/kg.

Turning to `O=C(O)c1ccc(=O)n(CCc2c[nH]c3ccccc23)c1`, the MDR1-MDCK efflux ratio is 2.39; the intrinsic clearance, human liver microsomes was no more than 4.74 mL/min/kg; the intrinsic clearance, rat liver microsomes was no more than 10.7 mL/min/kg; the aqueous solubility came to 42.4 µg/mL (≈ 150 µM).

As for `Cc1nc2ccc(NC(=O)c3sc(-c4ccccn4)nc3C)cc2s1`, the MDR1-MDCK efflux ratio stood at 0.685; the intrinsic clearance, human liver microsomes came to 10.2 mL/min/kg; the intrinsic clearance, rat liver microsomes was 38.5 mL/min/kg; the aqueous solubility is 1.3 µg/mL (≈ 3.55 µM).

`Cc1csc(NC(=O)c2ccc(-c3ccncc3)cc2)n1`: the MDR1-MDCK efflux ratio amounted to 0.179; the intrinsic clearance, human liver microsomes is 35.7 mL/min/kg; the intrinsic clearance, rat liver microsomes is 305 mL/min/kg; the aqueous solubility turned out to be 2.34 µg/mL (≈ 7.92 µM).

Consider `Cc1cc(CNc2ncc(C(F)(F)F)cc2Cl)no1`, for which the MDR1-MDCK efflux ratio was determined as 0.601; the intrinsic clearance, human liver microsomes came out at 64.6 mL/min/kg; the intrinsic clearance, rat liver microsomes turned out to be 128 mL/min/kg; the aqueous solubility worked out at 26.8 µg/mL (≈ 92 µM).

Regarding `COc1ccc(C2(NCc3ccc(N4CCCC4=O)cc3)CC2)cc1`, the MDR1-MDCK efflux ratio is 0.512; the intrinsic clearance, human liver microsomes was 13.4 mL/min/kg; the intrinsic clearance, rat liver microsomes was found to be 266 mL/min/kg; the aqueous solubility turned out to be 81.5 µg/mL (≈ 242 µM).

`CCCC(=O)Nc1cnc(N2CCN(C)CC2)nc1`: the MDR1-MDCK efflux ratio was 1.39; the intrinsic clearance, human liver microsomes was no more than 4.74 mL/min/kg; the intrinsic clearance, rat liver microsomes stood at 34.4 mL/min/kg; the aqueous solubility is 35.3 µg/mL (≈ 134 µM).

As to `O=C(CN1CCCC1=O)N1CCc2nc3sccc3c(=O)n2CC1`, the intrinsic clearance, human liver microsomes was no more than 4.74 mL/min/kg and the intrinsic clearance, rat liver microsomes was no more than 10.7 mL/min/kg.

As to `NCCN1CCN(C/C=C/C(=O)N2CCC[C@@H](n3nc(-c4ccc(Oc5ccccc5)cc4)c4c(N)ncnc43)C2)CC1`, the fraction unbound, human plasma was found to be 0.0501; the fraction unbound, rat plasma stood at 0.0486; the intrinsic clearance, human liver microsomes was found to be 9.07 mL/min/kg; the intrinsic clearance, rat liver microsomes stood at 49.8 mL/min/kg. The compound further gave an aqueous solubility of 30.2 µg/mL (≈ 51.9 µM).

`COc1ccc(Cc2nnn[nH]2)cc1F` displayed an intrinsic clearance, human liver microsomes of no more than 4.74 mL/min/kg and an intrinsic clearance, rat liver microsomes of no more than 10.7 mL/min/kg.

As to `CN1CCC(CNC(=O)c2ncoc2-c2ccc(F)cc2)CC1`, the MDR1-MDCK efflux ratio turned out to be 1.76; the intrinsic clearance, human liver microsomes was no more than 4.74 mL/min/kg; the intrinsic clearance, rat liver microsomes was 50.1 mL/min/kg.

`Nc1ccccc1-c1nc(C2CCCCCC2)no1`: the intrinsic clearance, human liver microsomes is 47.7 mL/min/kg and the intrinsic clearance, rat liver microsomes was determined as 1310 mL/min/kg.

On to `CCc1ccc(CC)c(C(=O)CSc2nncs2)c1`, for which the MDR1-MDCK efflux ratio came out at 0.473; the intrinsic clearance, human liver microsomes is 219 mL/min/kg; the intrinsic clearance, rat liver microsomes came to 1550 mL/min/kg.

For `Nc1ccc(C(=O)N2CCOCC2)c(Cl)c1`, the MDR1-MDCK efflux ratio came out at 0.476; the intrinsic clearance, human liver microsomes was no more than 4.74 mL/min/kg; the intrinsic clearance, rat liver microsomes is no more than 10.7 mL/min/kg; the aqueous solubility was found to be 38.1 µg/mL (≈ 159 µM).

In turn, `CC(C)(C)c1csc(Cn2ccnc2-c2ccccn2)n1` yielded an intrinsic clearance, human liver microsomes of 122 mL/min/kg and an intrinsic clearance, rat liver microsomes of 2620 mL/min/kg.

On to `Cn1cc(CCNc2cncc(Br)c2)cn1`, for which the MDR1-MDCK efflux ratio was 0.655; the intrinsic clearance, human liver microsomes came to 12 mL/min/kg; the intrinsic clearance, rat liver microsomes was determined as 110 mL/min/kg; the aqueous solubility was 40.4 µg/mL (≈ 144 µM).
